Patent publication US5099030A, “Novel compounds, pharmaceutical compositions, and methods for treating inflammation and pain” (The Procter & Gamble Company, priority 1991, dated 1992)

How the values were obtained:
[1] = Rodent Hot Plate Test; format: in vivo, male Sprague-Dawley rats
Procedure: The degree of thermal analgesia obtained is determined using the "rodent hot plate test" (RHP). The RHP system is designed to detect and evaluate agents which elevate the threshold for the perception of pain. Classically, this method has been utilized primarily to evaluate opioid (narcotic) analgesic agents, such as morphine.
Male Sprague-Dawley rats (Charles River Breeding Laboratories Inc.) weighing between 100 and 125 grams upon arrival are used to evaluate the compounds of the present invention. Animals are double housed in stainless steel cages, and are fed Purina Rat Chow and tap water ad libitum. The animals are food fasted the afternoon proceeding the day of the study, and food is returned 5 hours post-treatment. Animals not being dosed by oral gavage are not fasted.
The apparatus for evaluating analgesic activity consists of an insulated copper hot plate whose surface is maintained at 55°±0.5° C. by a circulating water bath. A bottomless glass container (12" (30 cm) tall by 8" (20 cm) diameter) is used to restrict the animal to a defined area of the hot plate. After dosing, the animal is placed through the top opening of the container, and a stop watch is started when the animal makes contact with the plate. The stop-watch is stopped upon either of the following visually observed end points: (1) licking or biting of either hind paw, or (2) jumping. If the jump is not successful but both hind paws leave the surface of the plate in an effort to jump, this is considered jumping. The stop-watch is stopped at the end point and the animal is immediately removed from the hot plate. The time (latency) between the initial contact of the animal on the hot plate and the endpoint is recorded.
Prior to dosing, animals are tested on the hot plate. This is denoted as pretest or base line latency. Usually, the animals are dosed by oral gavage, using a 1 cubic cm glass syringe connected to a size 8 french catheter. The dose volume is 5 ml/kg. On occasion, the animals are dosed by either subcutaneous administration or intravenous injection. Using the subcutaneous administration, a 1 ml tuberculin syringe is connected to a 25 gauge 5/8 inch needle, and injected under the skin in the neck or back region. For intravenous dosing, a 1 ml tuberculin syringe is connected to a 25 gauge 3/4 inch winged infusion set, and injected into the tail vein. The dose volume for subcutaneous and intravenous routes is 1 ml/kg. The latency times are typically recorded at 1.5, 3, 5, and 24 hours post-treatment. Much shorter times are recorded for an intravenous administration.

[2] = Mouse Abdominal Constriction Assay (phenylquinone writhing); format: in vivo, male CF-1 mice; details: for % Analgesia: 1.5 h post-dose
Procedure: Compounds of the present invention are tested for analgesic activity using the mouse abdominal constriction assay. This assay is described in Hendershot and Forsaith, J. Pharmacol. Exo.
Male CF-1 mice (Charles River Breeding Laboratories, Inc.), weighing approximately 20 grams and food fasted overnight, are used in these assays. Test compounds are prepared for oral (p.o.) or subcutaneous (s.c.) administration, with compounds of the present invention being prepared in acidified (1N acetic acid) distilled deionized water so that the appropriate dose is given in 0.2 mls to a 20 gram mouse.
Ten minutes after the i.p. injection of phenylquinone, the number of full body writhes are counted for the succeeding ten minutes. Percent analgesia in this assay is calculated as follows: [formula]

[3] = Oral syrup in human (Example IX); format: in vivo; details: one teaspoon of syrup, 70 kg adult human
Procedure: (§1) A composition for oral administration is prepared by combining the following ingredients:
The above ingredients are combined to produce a syrup and are packaged under sterile conditions in 6 oz. bottles.

[4] = Oral soft gelatin capsules in human (Example VIII); format: in vivo; details: two oral capsules, 225 mg of composition each, 60 kg human
Procedure: as §1
The octadecenamide is dissolved in the sesame oil with the aid of sonication and is packaged in soft gelatin capsules using methods known in the art.

[5] = Carrageenan Rat Paw Edema Test; format: in vivo, male Sprague Dawley rats; details: oral (stomach tube), 1 h before carrageenan, paw volume 4 h after carrageenan
Procedure: Compounds of the present invention are tested for anti-inflammatory activity using the Carrageenan Rat Paw Edema Test.
Male Sprague Dawley rats (Charles River Breeding Laboratories Inc.) are weighed and food fasted overnight. The animals are divided into four to six groups of six animals each according to body weights, average about 145 g, so that each group has about the same average weight (within 10 g).
The following morning five ml of water is dosed orally via stomach tube to each animal to facilitate paw swelling. Thirty minutes later the animals are dosed with the test compound and then placed in individual cages. The compound of the present invention is dissolved in distilled deionized water with 1 equivalent of 1N acetic acid and delivered via stomach tube in 1 ml volume.
One hour after dosing the test compound, the animals are placed in a plastic restrainer and 50 ul of a 1% (w/w) carrageenan solution in 0.9% saline is injected into the ventral surface of the left rear paw. Paw volumes (0 time) are determined on both hind paws with a mercury displacement device equipped with a transducer and digitizer following the carrageenan injection. Four hours after the carrageenan injection, the paw volumes are again determined.
The results are expressed as percent inhibition of the mean paw volume of the test group relative to the control group according to the formula:
(C-T a..n)/C×100=Percent Inhibition
where C is the average difference in paw volume before and after carrageenan-induced swelling, and
Ta..n is the difference in paw swelling in the treated animals (a..n). Statistical differences are determined by one way analysis of variance.

[6] = unless administered in toxic quantities; antipyretic analgesics; cited from earlier work

With `CCCCCCCC/C=C\CCCCCCCC(=O)NCc1ccc(OCCN)c(OC)c1` [N-((4-(2-aminoethoxy)-3-methoxyphenyl)-methyl)-9Z-octadecenamide] the “Mean Latency Times” value ([1]; 75 mg/kg oral, 1.5 hr post dose) was 21.8 s, the “Mean Latency Times” value ([1]; 75 mg/kg oral, 3 hr post dose) was 18.9 s and the “Mean Latency Times” value ([1]; 75 mg/kg oral, 5 hr post dose) was 18.7 s. For the same compound, the “Mean Latency Times” value ([1]; 75 mg/kg oral, 24 hr post dose) was 11.2 s, the “Mean Latency Times” value ([1]; 150 mg/kg oral, 1.5 hr post dose) was 30.6 s and the “Mean Latency Times” value ([1]; 150 mg/kg oral, 3 hr post dose) was 18.9 s. For the same compound, the “Mean Latency Times” value ([1]; 150 mg/kg oral, 5 hr post dose) was 15.0 s, the “Mean Latency Times” value ([1]; 150 mg/kg oral, 24 hr post dose) was 11.5 s and the “Mean Latency Times” value ([1]; 300 mg/kg oral, 1.5 hr post dose) was 30.7 s. The “Mean Latency Times” value ([1]; 300 mg/kg oral, 3 hr post dose) was 22.6 s, the “Mean Latency Times” value ([1]; 300 mg/kg oral, 5 hr post dose) was 21.0 s and the “Mean Latency Times” value ([1]; 300 mg/kg oral, 24 hr post dose) was 16.5 s. For the same compound, the “potency and efficacy relative to codeine” value ([1]; oral) was “at least as potent and efficacious as the known opiate codeine”, the “% Analgesia” value ([2]; 1 mg/kg subcutaneous) was 22.3% and the “% Analgesia” value ([2]; 2 mg/kg subcutaneous) was -13.7%. The “% Analgesia” value ([2]; 4 mg/kg subcutaneous) was 34.3%, the “% Analgesia” value ([2]; 8 mg/kg subcutaneous) was 57.8% and the “% Analgesia” value ([2]; 10 mg/kg oral) was 55.8%. The “% Analgesia” value ([2]; 10 mg/kg subcutaneous) was 91.4%, the “% Analgesia” value ([2]; 25 mg/kg oral) was 71.7% and the “% Analgesia” value ([2]; 75 mg/kg oral) was 88.3%. For the same compound, the “% Analgesia” value ([2]; 100 mg/kg subcutaneous) was 99.0%, the “% Analgesia” value ([2]; 150 mg/kg oral) was 95.5% and the “% Analgesia” value ([2]; 300 mg/kg oral) was 93.2%. The “analgesic potency compared with N-vanillyloleamide” value ([2]; oral, at a substantially lower dose) was “substantially greater analgesic potency at a substantially lower dose”, the analgesia [3] was “substantially similar reduction of inflammation and analgesic effect” and the reduction of inflammation [3] was “substantially similar reduction of inflammation”. The analgesia [4] was “producing analogesia”, the reduction of inflammation [4] was “reducing inflammation” and the “% Inhibition (of paw volume/swelling vs control)” value ([5]; 25 mg/kg) was 53.5%. For the same compound, the “% Inhibition (of paw volume/swelling vs control)” value ([5]; 50 mg/kg) was 73.7%, the “% Inhibition (of paw volume/swelling vs control)” value ([5]; 100 mg/kg) was 64.9% and the “% Inhibition (of paw volume/swelling vs control)” value ([5]; 200 mg/kg) was 61.4%.

For `CC(=O)Nc1ccc(O)cc1` [acetaminophen], the “activity in the RHP system” value [6] is given as “little or no activity”.

In the case of `CC(=O)Oc1ccccc1C(=O)O` [aspirin], the “activity in the RHP system” value [6] is given as “little or no activity”.
